We go through 1 molecule from patent US4822791A, “Pharmaceutical compositions of-2,2-1,1-[bis-2,2'-(3,1-benzoxazin-4-one)9 ethylenes” (priority 1984, dated 1989).

Molecules are shown by their SMILES. Where two headings read alike, the source gives them in different places.

The test system of assay [1] is passive cutaneous anaphylaxis (PCA). Briefly: Anti-passive cutaneous anaphylaxis (PCA) activity in rats (Test Example 2). The assay is classed as in vivo, Wistar strain rats. The following applies: Rattus norvegicus, N 10; for inhibition in vivo at 10 mg/kg: 10 mg/kg PO; for inhibition in vivo at 50 mg/kg: 50 mg/kg PO; for inhibition in vivo at 100 mg/kg: 100 mg/kg PO. The procedure, abridged: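 Antiserum from Wistar rats sensitized with ovalbumin (alum plus B. pertussis adjuvant) was diluted 16- or 32-fold and injected into dorsal skin of naive rats, which were held 48 h. Compound was given orally 1 h before i.v. ovalbumin plus Evans blue.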

Assay [2] shares this test system. Briefly: Anti-passive cutaneous anaphylaxis activity (PCA) in rats (Test Example 9). The assay is classed as in vivo. To be noted: Rattus norvegicus, po, 50 mg/kg, 10 animals. The procedure, abridged:
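Antiserum came from Wistar rats sensitized with ovalbumin (aluminium hydroxide plus B. pertussis adjuvant) and bled at day 14. It was diluted 12- and 24-fold and injected into the dorsal skin of naive rats 48 h before challenge.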

Setting [3] is: read-out: Average Inhibition Rate (%) Antiserum Dilution: × 16.
The mark [4] stands for this setting: read-out: Average Inhibition Rate (%) Antiserum Dilution: × 32.

As to `O=C(Nc1ccccc1C(=O)O)C(=Cc1ccccc1)C(=O)Nc1ccccc1C(=O)O` [Compound 11, 2,2'-[(1,3-dioxo-2-phenylmethylene-1,3-propanediyl)diimino]bisbenzoic acid], the inhibition in vivo at 10 mg/kg in assay [1] (setting [3]) amounted to 23.2%; in assay [1] (setting [4]), 33.1%. Further, the inhibition in vivo at 50 mg/kg was found to be 41.4% in assay [1] (setting [3]); 39.1% in assay [1] (setting [4]); 20.8% in assay [2] (read-out: Inhibition, Anti-serum Dilution: × 12); 23% in assay [2] (read-out: Inhibition, Anti-serum Dilution: × 24). The inhibition in vivo at 100 mg/kg stood at 52.9% in assay [1] (setting [3]) and 53.5% in assay [1] (setting [4]).
